Source: patent US8741897B2, “Glucocorticoid mimetics, methods of making them, pharmaceutical compositions and uses thereof” (Boehringer Ingelheim Pharmaceuticals Inc., priority 2003, dated 2014)

Assays:
[1] = biological target: T1, human glucocorticoid receptor (GR) complex (Homo sapiens, UniProt P04150); assay: Glucocorticoid receptor competitive binding assay (fluorescence polarization, TAMRA-labeled dexamethasone probe); conditions: compounds of Formula (IA)
T1 construct: made in house; host or cells: insect expression system (baculovirus lysate)
T1 sequence (P04150 1-777): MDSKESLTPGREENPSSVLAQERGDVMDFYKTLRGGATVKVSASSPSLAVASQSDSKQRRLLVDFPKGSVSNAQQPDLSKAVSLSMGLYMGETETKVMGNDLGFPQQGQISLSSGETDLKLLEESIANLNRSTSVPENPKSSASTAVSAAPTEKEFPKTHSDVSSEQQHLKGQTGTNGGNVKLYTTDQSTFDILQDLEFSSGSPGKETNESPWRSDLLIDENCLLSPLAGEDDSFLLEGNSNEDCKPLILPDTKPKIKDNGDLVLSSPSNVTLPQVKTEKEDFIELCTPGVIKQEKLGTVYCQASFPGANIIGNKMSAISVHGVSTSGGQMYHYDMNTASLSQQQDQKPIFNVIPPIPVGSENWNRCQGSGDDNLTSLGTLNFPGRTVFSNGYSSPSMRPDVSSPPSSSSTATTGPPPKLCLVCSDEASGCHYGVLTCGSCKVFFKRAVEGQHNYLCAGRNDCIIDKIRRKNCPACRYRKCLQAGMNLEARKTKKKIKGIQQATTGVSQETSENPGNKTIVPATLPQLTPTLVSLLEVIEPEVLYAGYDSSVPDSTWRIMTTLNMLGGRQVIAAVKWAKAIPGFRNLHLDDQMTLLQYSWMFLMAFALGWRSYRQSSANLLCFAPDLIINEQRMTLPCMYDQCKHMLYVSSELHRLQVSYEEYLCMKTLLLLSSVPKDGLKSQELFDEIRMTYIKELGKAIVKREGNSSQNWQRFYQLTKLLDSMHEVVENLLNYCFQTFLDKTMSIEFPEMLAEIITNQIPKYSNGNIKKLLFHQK
Summary of the method: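 Fluorescence-polarization competition against 15 nM TAMRA-dexamethasone (stock added to the mix) for human GR complex from baculovirus lysate diluted 1:170. Buffer: 10 mM TES, 50 mM KCl, 20 mM Na2MoO4, 1.5 mM EDTA, 0.04% CHAPS, 10% glycerol, 1 mM DTT, pH 7.4. IC50 from 4-parameter logistic fit.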

[2] = tested on: glucocorticoid receptor function; assay: one or more of the above assays (GR binding and glucocorticoid receptor cell assays: aromatase, IL-6, TAT, MMTV-Luc, IL-8, ICAM-Luc); assay type: cell-based; conditions: assay not specified per compound

Compound	activity in the GR binding assay [1]	activity as agonists of the glucocorticoid receptor function in one or more of the above assays [2]
Cc1c(CC(O)(CC(C)(C)c2cc(Cl)cc3c2OCC3)C(F)(F)F)[nH]c2cnccc12 (stereo not drawn) [4-(5-Chloro-2,3-dihydrobenzofuran-7-yl)-1,1,1-trifluoro-4-methyl-2-(3-methyl-1H-pyrrolo[2,3-c]pyridin-2-ylmethyl)pentan-2-ol]	potent activity	potent agonists
CC(C)(CC(O)(Cc1cc2cc(C(F)(F)F)ncc2[nH]1)C(F)(F)F)c1cc(Cl)cc2c1OCC2 (stereo not drawn) [4-(5-Chloro-2,3-dihydrobenzofuran-7-yl)-1,1,1-trifluoro-4-methyl-2-(5-trifluoromethyl-1H-pyrrolo[2,3-c]pyridin-2-ylmethyl)pentan-2-ol]	potent activity	potent agonists
CC(C)(CC(O)(Cc1cc2ncncc2[nH]1)C(F)(F)F)c1cc(Cl)cc2c1OCC2 (stereo not drawn) [4-(5-Chloro-2,3-dihydrobenzofuran-7-yl)-1,1,1-trifluoro-4-methyl-2-(5H-pyrrolo[3,2-d]pyrimidin-6-ylmethyl)pentan-2-ol]	potent activity	potent agonists
Cc1cc2[nH]c(CC(O)(CC(C)(C)c3cc(Cl)cc4c3OCC4)C(F)(F)F)cc2cn1 (stereo not drawn) [4-(5-Chloro-2,3-dihydrobenzofuran-7-yl)-1,1,1-trifluoro-4-methyl-2-(6-methyl-1H-pyrrolo[3,2-c]pyridin-2-ylmethyl)pentan-2-ol]	potent activity	potent agonists
CC(C)(CC(O)(Cn1ccc2ncccc21)C(F)(F)F)c1cc(Cl)cc2c1OCC2 (stereo not drawn) [4-(5-Chloro-2,3-dihydrobenzofuran-7-yl)-1,1,1-trifluoro-4-methyl-2-pyrrolo[3,2-b]pyridin-1-ylmethylpentan-2-ol]	potent activity	potent agonists
COC(=O)CCCNC(=O)c1ccc2[nH]c(CC(O)(CC(C)(C)c3cc(F)ccc3OC)C(F)(F)F)cc2c1 (stereo not drawn) [4-({2-[4-(5-Fluoro-2-methoxyphenyl)-2-hydroxy-4-methyl-2-trifluoromethylpentyl]-1H-indole-5-carbonyl}amino)butyric acid methyl ester]	potent activity	potent agonists
CC(C)(CC(O)(Cc1ccnc2ccccc12)C(F)(F)F)c1cccc(-c2ccccc2)c1 (stereo not drawn) [4-Biphenyl-3-yl-1,1,1-trifluoro-4-methyl-2-quinolin-4-ylmethylpentan-2-ol]	potent activity	potent agonists
CC(C)(CC(O)(Cc1ccnc2ccccc12)C(F)(F)F)c1cc(F)ccc1O (stereo not drawn) [4-Fluoro-2-(4,4,4-trifluoro-3-hydroxy-1,1-dimethyl-3-quinolin-4-ylmethylbutyl)phenol]	potent activity	potent agonists
CC(C)(CC(O)(Cc1ccnc(F)c1)C(F)(F)F)c1cc(F)ccc1O (stereo not drawn) [4-Fluoro-2-[4,4,4-trifluoro-3-(2-fluoropyridin-4-ylmethyl)-3-hydroxy-1,1-dimethylbutyl]phenol]	potent activity	potent agonists
Cc1cc(CC(O)(CC(C)(C)c2cc(F)ccc2O)C(F)(F)F)c2ccccc2n1 (stereo not drawn) [4-Fluoro-2-[4,4,4-trifluoro-3-hydroxy-1,1-dimethyl-3-(2-methylquinolin-4-ylmethyl)butyl]phenol]	potent activity	potent agonists
CC(C)(CC(O)(Cc1cc2cc([N+](=O)[O-])ccc2[nH]1)C(F)(F)F)c1cc(F)ccc1O (stereo not drawn) [4-Fluoro-2-[4,4,4-trifluoro-3-hydroxy-1,1-dimethyl-3-(5-nitro-1H-indol-2-ylmethyl)butyl]phenol]	potent activity	potent agonists
CC(C)(CC(O)(Cc1cc2cc(C(F)(F)F)ccc2[nH]1)C(F)(F)F)c1cc(F)ccc1O (stereo not drawn) [4-Fluoro-2-[4,4,4-trifluoro-3-hydroxy-1,1-dimethyl-3-(5-trifluoromethyl-1H-indol-2-ylmethyl)butyl]phenol]	potent activity	potent agonists
Cc1ccc(O)c(C(C)(C)CC(O)(Cc2cc3ccccc3[nH]2)C(F)(F)F)c1 (stereo not drawn) [4-Methyl-2-[4,4,4-trifluoro-3-hydroxy-3-(1H-indol-2-ylmethyl)-1,1-dimethylbutyl]phenol]	potent activity	potent agonists
COc1ccc(F)cc1C(C)(C)CC(O)(Cc1ccnc(C#N)c1)C(F)(F)F (stereo not drawn) [4-[4-(5-Fluoro-2-methoxyphenyl)-2-hydroxy-4-methyl-2-trifluoromethylpentyl]pyridine-2-carbonitrile]	potent activity	potent agonists
Cc1ccc(F)c2[nH]c(CC(O)(CC(C)(C)c3ccc(F)cc3O)C(F)(F)F)cc12 (stereo not drawn) [5-Fluoro-2-[4,4,4-trifluoro-3-(7-fluoro-4-methyl-1H-indol-2-ylmethyl)-3-hydroxy-1,1-dimethylbutyl]phenol]	potent activity	potent agonists
CC(C)(CC(O)(Cc1ccnc2ccccc12)C(F)(F)F)c1cc(C#N)cc2c1OCC2 (stereo not drawn) [7-(4,4,4-Trifluoro-3-hydroxy-1,1-dimethyl-3-quinolin-4-ylmethylbutyl)-2,3-dihydrobenzofuran-5-carbonitrile]	potent activity	potent agonists
COC(=O)CNC(=O)c1ccc2[nH]c(CC(O)(CC(C)(C)c3cc(F)ccc3OC)C(F)(F)F)cc2c1 (stereo not drawn) [({2-[4-(5-Fluoro-2-methoxyphenyl)-2-hydroxy-4-methyl-2-trifluoromethylpentyl]-1H-indole-5-carbonyl}amino)acetic acid methyl ester]	potent activity	potent agonists
COc1ccc(F)cc1C(C)(C)CC(O)(Cc1cc2cc(NC(C)=O)ccc2[nH]1)C(F)(F)F (stereo not drawn) [N-{2-[4-(5-Fluoro-2-methoxyphenyl)-2-hydroxy-4-methyl-2-trifluoromethylpentyl]-1H-indol-5-yl}acetamide]	potent activity	potent agonists
